This note sets out measurements from patent US9771406B2, “Peptidic dual GLP-1/glucagon receptor agonists derived from exendin-4” (priority 2014, dated 2017).

The target in one series is T1, human GLP-1 receptor (Homo sapiens, UniProt P43220).
T1 construct: expressed in transfected cells; host or cells: HEK-293
Nature of the series: cAMP response of HEK-293 cells stably expressing human GLP-1 receptor (HTRF). Type of series: cell-based. As to conditions: Table 6; cAMP formation; read-out: EC50 hGLP-1R. The method, then:
(§1) cAMP content of cells was determined using a kit from Cisbio Corp. (cat. no. 62AM4PEC) based on HTRF (Homogenous Time Resolved Fluorescence). For preparation, cells were split into T175 culture flasks and grown overnight to near confluency in medium (DMEM/10% FBS). Medium was then removed and cells washed with PBS lacking calcium and magnesium, followed by proteinase treatment with accutase (Sigma-Aldrich cat. no. A6964). Detached cells were washed and resuspended in assay buffer (1×HBSS; 20 mM HEPES, 0.1% BSA, 2 mM IBMX) and cellular density determined. They were then diluted to 400000 cells/ml and 25 μl-aliquots dispensed into the wells of 96-well plates. For measurement, 25 μl of test compound in assay buffer was added to the wells, followed by incubation for 30 minutes at room temperature.
(§2) Potencies of peptidic compounds at the GLP-1, glucagon and GIP receptors were determined by exposing cells expressing human glucagon receptor (hGCG R), human GIP (hGIP R) and human GLP-1 receptor (hGLP-1 R) to the listed compounds at increasing concentrations and measuring the formed cAMP as described in Methods.
(In TR-FRET formats the signal depends on donor and acceptor labels being close together.)

For another series, the target named is T2, human GIP receptor (Homo sapiens, UniProt P48546).
T2 construct: expressed in transfected cells; host or cells: HEK-293
T2 sequence (P48546 22-466): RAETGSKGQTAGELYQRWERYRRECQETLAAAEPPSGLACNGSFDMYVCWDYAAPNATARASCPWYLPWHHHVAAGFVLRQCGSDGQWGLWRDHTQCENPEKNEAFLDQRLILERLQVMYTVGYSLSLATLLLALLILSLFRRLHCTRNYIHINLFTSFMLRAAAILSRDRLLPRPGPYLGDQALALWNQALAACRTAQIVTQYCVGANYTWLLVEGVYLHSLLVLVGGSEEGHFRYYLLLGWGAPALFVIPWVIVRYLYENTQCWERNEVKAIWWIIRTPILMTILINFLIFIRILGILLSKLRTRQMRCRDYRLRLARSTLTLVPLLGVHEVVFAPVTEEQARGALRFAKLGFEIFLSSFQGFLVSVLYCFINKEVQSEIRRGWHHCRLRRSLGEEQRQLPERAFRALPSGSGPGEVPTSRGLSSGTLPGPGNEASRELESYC
Briefly: cAMP response of HEK-293 cells stably expressing human GIP receptor (HTRF). It counts as cell-based. Particulars: Table 6; cAMP formation; read-out: EC50 hGIP-R. The procedure:
as §1, §2

The next series concerns the target T3, human glucagon receptor (Homo sapiens, UniProt P47871).
T3 construct: expressed in transfected cells; host or cells: HEK-293
Nature of the series: cAMP response of HEK-293 cells stably expressing human glucagon receptor (HTRF). As to conditions: Table 6; cAMP formation; read-out: EC50 hGlucagon-R. It counts as cell-based. The procedure: as §1, §2

Series [1] is described as follows: Solubility testing of exendin-4 derivatives (HPLC-UV of supernatant). It counts as physicochemical. The method, then:
Prior to the testing of solubility and stability of a peptide batch, its purity (HPLC-UV) was determined. […] Therefore, solutions from solid samples were prepared in different buffer systems with a concentration of 10 mg/mL compound based on the previously determined % purity. HPLC-UV was performed after 2 h of gentle agitation from the supernatant, which was obtained by 20 min of centrifugation at 4500 rpm. […] This analysis also served as starting point (t0) for the stability testing.

Series [2] in a line: Stability testing in solution, 7 days at 40° C. (% remaining peptide, HPLC-UV). It counts as physicochemical. The method, then:
After that time course, the sample was centrifuged for 20 min at 4500 rpm and 0.2 μL of the supernatant were analysed with HPLC-UV.
For determination of the amount of the remaining peptide, the peak areas of the target compound at t0 and t7 were compared, resulting in “% remaining peptide”, following the equation % remaining peptide=[(peak area peptide t7)×100]/peak area peptide t0.
The stability is expressed as “% remaining peptide”.

Read-outs that look alike come from different tables or passages of the source.

T3 sequence (P47871 26-477): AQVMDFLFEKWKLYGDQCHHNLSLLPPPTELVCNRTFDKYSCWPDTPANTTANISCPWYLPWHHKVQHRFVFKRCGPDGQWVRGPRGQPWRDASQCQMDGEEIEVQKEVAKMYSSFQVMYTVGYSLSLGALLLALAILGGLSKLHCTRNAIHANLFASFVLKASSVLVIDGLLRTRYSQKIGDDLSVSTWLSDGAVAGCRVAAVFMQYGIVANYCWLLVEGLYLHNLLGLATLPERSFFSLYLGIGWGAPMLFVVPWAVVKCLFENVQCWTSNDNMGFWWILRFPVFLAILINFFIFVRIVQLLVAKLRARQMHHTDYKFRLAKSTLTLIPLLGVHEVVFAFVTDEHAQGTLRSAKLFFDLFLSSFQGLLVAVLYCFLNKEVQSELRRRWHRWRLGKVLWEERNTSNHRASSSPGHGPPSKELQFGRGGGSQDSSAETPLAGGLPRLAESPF
T1 sequence (P43220 24-463): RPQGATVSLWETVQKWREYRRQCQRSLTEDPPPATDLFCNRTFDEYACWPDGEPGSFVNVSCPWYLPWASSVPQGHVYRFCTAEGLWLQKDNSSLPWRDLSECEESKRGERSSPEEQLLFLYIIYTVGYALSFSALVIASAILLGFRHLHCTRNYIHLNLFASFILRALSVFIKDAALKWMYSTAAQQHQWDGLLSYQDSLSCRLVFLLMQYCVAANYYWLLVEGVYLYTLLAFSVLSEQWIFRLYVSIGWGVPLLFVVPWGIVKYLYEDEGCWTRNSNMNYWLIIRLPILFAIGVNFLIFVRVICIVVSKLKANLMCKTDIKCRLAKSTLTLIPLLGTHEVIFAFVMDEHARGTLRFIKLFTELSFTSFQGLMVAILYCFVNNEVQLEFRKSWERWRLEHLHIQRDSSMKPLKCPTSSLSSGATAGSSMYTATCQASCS

One may read the EC50 as the concentration giving half of the maximal effect. As to `CCCCCCCCCCCCCCCCCC(=O)N[C@@H](CCC(=O)NCCCC[C@H](NC(=O)[C@H](CCC(N)=O)NC(=O)[C@H](CCCCN)NC(=O)[C@H](CO)NC(=O)[C@H](CC(C)C)NC(=O)[C@H](CC(=O)O)NC(=O)[C@H](CO)NC(=O)[C@@H](NC(=O)[C@H](Cc1ccccc1)NC(=O)[C@@H](NC(=O)CNC(=O)[C@H](Cc1c[nH]cn1)NC(=O)[C@@H](CO)NC(=O)[C@@H](N)Cc1c[nH]cn1)[C@@H](C)O)[C@@H](C)O)C(=O)N[C@@H](CCC(=O)O)C(=O)N[C@@H](CCC(=O)O)C(=O)N[C@@H](CCC(=O)O)C(=O)N[C@@H](C)C(=O)N[C@H](C(=O)N[C@@H](CCCNC(=N)N)C(=O)N[C@@H](CC(C)C)C(=O)N[C@@H](Cc1ccccc1)C(=O)N[C@H](C(=O)N[C@@H](CCC(=O)O)C(=O)N[C@@H](Cc1c[nH]c2ccccc12)C(=O)N[C@@H](CC(C)C)C(=O)N[C@@H](CCCCN)C(=O)N[C@@H](C)C(=O)NCC(=O)NCC(=O)N1CCC[C@H]1C(=O)N[C@@H](CO)C(=O)N[C@@H](CO)C(=O)NCC(=O)N[C@@H](C)C(=O)N1CCC[C@H]1C(=O)N1CCC[C@H]1C(=O)N1CCC[C@H]1C(=O)N[C@@H](CO)C(N)=O)[C@@H](C)CC)C(C)C)C(=O)O` [compound 25], the values for the EC50 on human GLP-1 receptor, on human GIP receptor and on human glucagon receptor were 0.0081 nM, 0.407 nM and 0.0399 nM, respectively.
By solubility is commonly meant the dissolved amount per volume that the medium holds. In the case of `CCCCCCCCCCCCCCCCCC(=O)N[C@@H](CCC(=O)NCCCC[C@H](NC(=O)[C@H](CCC(N)=O)NC(=O)[C@H](CCCCN)NC(=O)[C@H](CO)NC(=O)[C@H](CC(C)C)NC(=O)[C@H](CC(=O)O)NC(=O)[C@H](CO)NC(=O)[C@@H](NC(=O)[C@H](Cc1ccccc1)NC(=O)[C@@H](NC(=O)CNC(=O)[C@H](Cc1c[nH]cn1)NC(=O)[C@@H](CO)NC(=O)[C@@H](N)Cc1c[nH]cn1)[C@@H](C)O)[C@@H](C)O)C(=O)N[C@@H](CCC(=O)O)C(=O)N[C@@H](CCC(=O)O)C(=O)N[C@@H](CCC(=O)O)C(=O)N[C@@H](C)C(=O)N[C@H](C(=O)N[C@@H](CCCNC(=N)N)C(=O)N[C@@H](CC(C)C)C(=O)N[C@@H](Cc1ccccc1)C(=O)N[C@H](C(=O)N[C@@H](CCC(=O)O)C(=O)N[C@@H](Cc1c[nH]c2ccccc12)C(=O)N[C@@H](CC(C)C)C(=O)N[C@@H](CCCCN)C(=O)N[C@@H](C)C(=O)NCC(=O)NCC(=O)N1CCC[C@H]1C(=O)N[C@@H](CO)C(=O)N[C@@H](CO)C(=O)NCC(=O)N[C@@H](C)C(=O)N1CCC[C@H]1C(=O)N1CCC[C@H]1C(=O)N1CCC[C@H]1C(=O)N[C@@H](CO)C(N)=O)[C@@H](C)CC)C(C)C)C(=O)O` [compound 9], the solubility at 2 h in series [1] (pH 4.5) and in series [1] (pH 7.4) was above 5000 µg/mL each time.
For the molecule `CCCCCCCCCCCCCCCC(=O)N[C@@H](CCC(=O)N[C@@H](CCC(=O)NCCCC[C@H](NC(=O)[C@H](CCC(N)=O)NC(=O)[C@H](CCCCN)NC(=O)[C@H](CO)NC(=O)[C@H](CC(C)C)NC(=O)[C@H](CC(=O)O)NC(=O)[C@H](CO)NC(=O)[C@@H](NC(=O)[C@H](Cc1ccccc1)NC(=O)[C@@H](NC(=O)CNC(=O)[C@H](CCC(N)=O)NC(=O)C(C)(C)NC(=O)[C@@H](N)Cc1c[nH]cn1)[C@@H](C)O)[C@@H](C)O)C(=O)N[C@@H](CCC(=O)O)C(=O)N[C@@H](CCC(=O)O)C(=O)N[C@@H](CCC(=O)O)C(=O)N[C@@H](C)C(=O)N[C@H](C(=O)N[C@@H](CCCNC(=N)N)C(=O)N[C@@H](CC(C)C)C(=O)N[C@@H](Cc1ccccc1)C(=O)N[C@H](C(=O)N[C@@H](CCC(=O)O)C(=O)N[C@@H](Cc1c[nH]c2ccccc12)C(=O)N[C@@H](CC(C)C)C(=O)N[C@@H](CCCCN)C(=O)N[C@@H](C)C(=O)NCC(=O)NCC(=O)N1CCC[C@H]1C(=O)N[C@@H](CO)C(=O)N[C@@H](CO)C(=O)NCC(=O)N[C@@H](C)C(=O)N1CCC[C@H]1C(=O)N1CCC[C@H]1C(=O)N1CCC[C@H]1C(=O)N[C@@H](CO)C(N)=O)[C@@H](C)CC)C(C)C)C(=O)O)C(=O)O` [compound 24], the EC50 at human GLP-1 receptor is 0.0045 nM.
In the case of `CCCCCCCCCCCCCCCCCC(=O)N[C@@H](CCC(=O)NCCCC[C@H](NC(=O)[C@H](CCC(N)=O)NC(=O)[C@H](CCCCN)NC(=O)[C@H](CO)NC(=O)[C@H](CC(C)C)NC(=O)[C@H](CC(=O)O)NC(=O)[C@H](CO)NC(=O)[C@@H](NC(=O)[C@H](Cc1ccccc1)NC(=O)[C@@H](NC(=O)CNC(=O)[C@H](Cc1c[nH]cn1)NC(=O)C(C)(C)NC(=O)[C@@H](N)Cc1c[nH]cn1)[C@@H](C)O)[C@@H](C)O)C(=O)N[C@@H](CCC(=O)O)C(=O)N[C@@H](CCC(=O)O)C(=O)N[C@@H](CCC(=O)O)C(=O)N[C@@H](C)C(=O)N[C@H](C(=O)N[C@@H](CCCNC(=N)N)C(=O)N[C@@H](CC(C)C)C(=O)N[C@@H](Cc1ccccc1)C(=O)N[C@H](C(=O)N[C@@H](CCC(=O)O)C(=O)N[C@@H](Cc1c[nH]c2ccccc12)C(=O)N[C@@H](CC(C)C)C(=O)N[C@@H](CCCCN)C(=O)N[C@@H](C)C(=O)NCC(=O)NCC(=O)N1CCC[C@H]1C(=O)N[C@@H](CO)C(=O)N[C@@H](CO)C(=O)NCC(=O)N[C@@H](C)C(=O)N1CCC[C@H]1C(=O)N1CCC[C@H]1C(=O)N1CCC[C@H]1C(=O)N[C@@H](CO)C(N)=O)[C@@H](C)CC)C(C)C)C(=O)O` [compound 7], the figures for the EC50 on human GLP-1 receptor, at human GIP receptor and at human glucagon receptor were 0.0065 nM, 0.0256 nM and 0.0058 nM, respectively.
On to `CCCCCCCCCCCCCCCC(=O)N[C@@H](CCC(=O)N[C@@H](CCC(=O)NCCCC[C@H](NC(=O)[C@H](CCC(N)=O)NC(=O)[C@H](CCCCN)NC(=O)[C@H](CO)NC(=O)[C@H](CC(C)C)NC(=O)[C@H](CC(=O)O)NC(=O)[C@H](CO)NC(=O)[C@@H](NC(=O)[C@H](Cc1ccccc1)NC(=O)[C@@H](NC(=O)CNC(=O)[C@H](Cc1c[nH]cn1)NC(=O)[C@@H](CO)NC(=O)[C@@H](N)Cc1c[nH]cn1)[C@@H](C)O)[C@@H](C)O)C(=O)N[C@@H](CCC(=O)O)C(=O)N[C@@H](CCC(=O)O)C(=O)N[C@@H](CCC(=O)O)C(=O)N[C@@H](C)C(=O)N[C@H](C(=O)N[C@@H](CCCNC(=N)N)C(=O)N[C@@H](CC(C)C)C(=O)N[C@@H](Cc1ccccc1)C(=O)N[C@H](C(=O)N[C@@H](CCC(=O)O)C(=O)N[C@@H](Cc1c[nH]c2ccccc12)C(=O)N[C@@H](CC(C)C)C(=O)N[C@@H](CCCCN)C(=O)N[C@@H](C)C(=O)NCC(=O)NCC(=O)N1CCC[C@H]1C(=O)N[C@@H](CO)C(=O)N[C@@H](CO)C(=O)NCC(=O)N[C@@H](C)C(=O)N1CCC[C@H]1C(=O)N1CCC[C@H]1C(=O)N1CCC[C@H]1C(=O)N[C@@H](CO)C(N)=O)[C@@H](C)CC)C(C)C)C(=O)O)C(=O)O` [compound 13], for which the EC50 on human GIP receptor was 0.079 nM; on human glucagon receptor it was 0.0225 nM.
With `CCCCCCCCCCCCCCCCCC(=O)N[C@@H](CCC(=O)NCCCC[C@H](NC(=O)[C@H](CCC(N)=O)NC(=O)[C@H](CCCCN)NC(=O)[C@H](CO)NC(=O)[C@H](CC(C)C)NC(=O)[C@H](CC(=O)O)NC(=O)[C@H](CO)NC(=O)[C@@H](NC(=O)[C@H](Cc1ccccc1)NC(=O)[C@@H](NC(=O)CNC(=O)[C@H](Cc1c[nH]cn1)NC(=O)[C@H](CO)NC(=O)[C@@H](N)Cc1c[nH]cn1)[C@@H](C)O)[C@@H](C)O)C(=O)N[C@@H](CCC(=O)O)C(=O)N[C@@H](CCC(=O)O)C(=O)N[C@@H](CCC(=O)O)C(=O)N[C@@H](C)C(=O)N[C@H](C(=O)N[C@@H](CCCNC(=N)N)C(=O)N[C@@H](CC(C)C)C(=O)N[C@@H](Cc1ccccc1)C(=O)N[C@H](C(=O)N[C@@H](CCC(=O)O)C(=O)N[C@@H](Cc1c[nH]c2ccccc12)C(=O)N[C@@H](CC(C)C)C(=O)N[C@@H](CCCCN)C(=O)N[C@@H](C)C(=O)NCC(=O)NCC(=O)N1CCC[C@H]1C(=O)N[C@@H](CO)C(=O)N[C@@H](CO)C(=O)NCC(=O)N[C@@H](C)C(=O)N1CCC[C@H]1C(=O)N1CCC[C@H]1C(=O)N1CCC[C@H]1C(=O)N[C@@H](CO)C(N)=O)[C@@H](C)CC)C(C)C)C(=O)O` [compound 10], the “Stability (pH 4.5), % remaining peptide” value in series [2] (pH 4.5, 7 days at 40° C. in solution) is given as 92.7%. In series [2] (pH 7.4, 7 days at 40° C. in solution), the “Stability (pH 7.4), % remaining peptide” value is given as 93.4%. Also, the solubility at 2 h in series [1] (pH 4.5, target concentration 10 mg/ml, 2 h agitation, read-out: Solubility (pH 4.5)) was above 5000 µg/mL; in series [1] (pH 7.4, target concentration 10 mg/ml, 2 h agitation, read-out: Solubility (pH 7.4)) it was above 5000 µg/mL.
